Measurements published in patent US20230293629A1, “METHODS FOR ATTENUATING RELEASE OF INFLAMMATORY MEDIATORS AND PEPTIDES USEFUL THEREIN” (BIOMARCK PHARMACEUTICALS LTD., priority 2006, published 2023).
Where a SMILES comes first, the peptide text is derived from it. The star is where a group is joined. Myristoyl = CCCCCCCCCCCCCC(=O)*

System: isolated canine neutrophils
Experiment: MPO secretion from isolated canine neutrophils stimulated with PMA + 8-Br-cGMP (FIG. 6, 10, 11)
Format: cell-based
Conditions: for MPO secretion: FIG. 6, 100 nM PMA and 10 μM 8-Br-cGMP
From the text: The invention also relates to a new method for blocking any cellular exocytotic secretory process, especially those releasing inflammatory mediators from granules contained within inflammatory cells, whose stimulatory pathways involve the protein kinase C (PKC) substrate MARCKS protein and release of contents from membrane-bound vesicles. Specifically, the inventors have shown that stimulated release of the inflammatory mediator myloperoxidase from human (FIG. 6) or canine (FIG. 7) neutrophils can be blocked in a concentration-dependent manner by the MANS peptide. […] 10 or 100 μM of a control peptide (RNS) has no effect on MPO secretion. In FIG. 7, isolated neutrophils were stimulated to secrete myloperoxidase (MPO) with 100 nM PMA and 10 μM 8-Br-cGMP. […] 10 or 100 μM of a control peptide (RNS) has no effect on MPO secretion. Thus, the peptide may be used therapeutically to block the release of mediators of inflammation secreted from infiltrating inflammatory cells in any tissues. Many of these released mediators are responsible for the extensive tissue damage observed in a variety of chronic inflammatory diseases (i.e., respiratory diseases such as asthma, chronic bronchitis and COPD, inflammatory bowel diseases including ulcerative colitis and Crohn's disease, autoimmune diseases, skin diseases such as rosacea, eczema; and severe acne, arthritic and pain syndromes such as rheumatoid arthritis and fibromyalgia). This invention may be useful for treating diseases such as arthritis, chronic bronchitis, COPD and cystic fibrosis. This invention is accordingly useful for the treatment in both human and animal diseases, especially those affecting equines, canines, felines, and other household pets.
FIGS. 8-12 show MPO secretion for both humans and canines. In all of these experiments, isolated neutrophils were stimulated with LPS at a concentration of 1×10^−6 M for 10 minutes at 37° C. prior to adding the stimuli as indicated in the figures. The LPS primes the cells so they can respond to a secretagogue.
Isolation of PMNs from canine blood—The steps involved in isolating PMN include collecting 10 ml ACD anticoagulated blood. Then layering 5 ml on 3.5 ml PMN isolation media while ensuring that the PMN isolation media (IM) was at room temperature (RI). Next, the blood was centrifuged at room temperature for 30′, 550×g at 1700 RPMs. The low lower white band was transferred into 15 ml conical centrifuge tube (CCFT). Next, 2V HESS with 10% fetal bovine serum […] was added and centrifuged at room temperature for 10′, 400×g at 1400 RPMs. The pellet was then resuspended in 5 ml 1-1ESS with PBS. The cell suspension was added to 50 ml CCFT containing 20 ml of ice cold 0.88% NH4Cl and inverted two to three times. The resulting product was centrifuged for 10′, 800×g at 2000 RPMs, then aspirated and resuspended in 5 ml HBSS with FBS. The prep was examined by counting and cytospin and preferably for whole blood, the cell number should be between 10^9-10^11 cells and for PMNs, cell number should be between 2-4×10^7 cells. See generally, Wang et al., J. Immunol., “Neutrophil-induced changes in the biomechanical properties of endothelial cells: roles of ICAM-1 and reactive oxygen species,” 6487-94 (2000).
MPO Colorimetric Enzyme Assay—Samples were assayed for MPO activity in 96 well round bottom microtiter plates using a sandwich ELISA kit (R & D Systems, Minneapolis, Minn.). […]

For `CCCCCCCCCCCCCC(=O)NCC(=O)N[C@@H](C)C(=O)N[C@@H](CCC(N)=O)C(=O)N[C@@H](Cc1ccccc1)C(=O)N[C@@H](CO)C(=O)N[C@@H](CCCCN)C(=O)N[C@H](C(=O)N[C@@H](C)C(=O)N[C@@H](C)C(=O)N[C@@H](CCCCN)C(=O)NCC(=O)N[C@@H](CCC(=O)O)C(=O)N[C@@H](C)C(=O)N[C@@H](C)C(=O)N[C@@H](C)C(=O)N[C@@H](CCC(=O)O)C(=O)N[C@@H](CCCNC(=N)N)C(=O)N1CCC[C@H]1C(=O)NCC(=O)N[C@@H](CCC(=O)O)C(=O)N[C@@H](C)C(=O)N[C@@H](C)C(=O)N[C@H](C(=O)N[C@@H](C)C(=O)O)C(C)C)[C@@H](C)O` [MANS] (Myristoyl-GAQFSKTAAKGEAAAERPGEAAVA-OH; C-terminus assumed), the MPO secretion (10 μM peptide) was “slight decrease” and the MPO secretion (100 (unit not given) peptide) was “decreased secretion of MPO to control levels”.

`CCCCCCCCCCCCCC(=O)O[C@@H]1[C@@H](C)[C@@]2(O)[C@@H](C=C(CO)C[C@]3(O)C(=O)C(C)=C[C@@H]23)[C@@H]2C(C)(C)[C@]12OC(C)=O` [PMA, phorbol 12-myristate 13-acetate] was tested, and the “MPO secretion from LPS-stimulated canine neutrophils” value (FIG. 10, PMA alone, enhanced concentration-dependently by co-stimulation with 8-Br-cGMP) was “small increase”.

`CCCCCCCCCCCCCC(=O)NCC(=O)N[C@H](C(=O)N[C@@H](C)C(=O)N1CCC[C@H]1C(=O)N[C@@H](C)C(=O)N[C@@H](C)C(=O)N[C@@H](CCC(=O)O)C(=O)NCC(=O)N[C@@H](C)C(=O)NCC(=O)N[C@@H](C)C(=O)N[C@@H](CCC(=O)O)C(=O)N[C@H](C(=O)N[C@@H](CCCCN)C(=O)N[C@@H](CCCNC(=N)N)C(=O)N[C@@H](C)C(=O)N[C@@H](CO)C(=O)N[C@@H](C)C(=O)N[C@@H](CCC(=O)O)C(=O)N[C@@H](C)C(=O)N[C@@H](CCCCN)C(=O)N[C@@H](CCC(N)=O)C(=O)N[C@@H](C)C(=O)N[C@@H](Cc1ccccc1)C(=O)O)C(C)C)[C@@H](C)O` [RNS, reference compound] (Myristoyl-GTAPAAEGAGAEVKRASAEAKQAF-OH; C-terminus assumed) was tested, and the MPO secretion (10 or 100 μM peptide) was “no effect”.
